Results taken from ChEMBL document CHEMBL5260826, “Enzyme inhibitory activities an insight into the structure-Activity relationship of biscoumarin derivatives” (Eur J Med Chem, 2017).
In brackets after ≈: the same amount, converted by molar mass. Values belong to the molecule of their own block, whether it stands above or below them.

Experiments:
[1] = Inhibition of urease (unknown origin)
[2] = Inhibition of HIV-1 integrase; set-up: species or system Human immunodeficiency virus 1
[3] = target: T1, Alpha-glucosidase (Saccharomyces cerevisiae S288c, UniProt P53341+P38158+P07265); test: Inhibition of Baker's yeast alpha-glucosidase using pNPG as substrate assessed as release of p-nitrophenol preincubated for 10 mins followed by substrate addition and measured after 30 mins by microplate reader analysis; format: protein assay
[4] = target: T2, Hepatocyte growth factor receptor (Homo sapiens, UniProt P08581); test: Inhibition of c-Met (unknown origin)
T2 sequence (P08581 whole entry): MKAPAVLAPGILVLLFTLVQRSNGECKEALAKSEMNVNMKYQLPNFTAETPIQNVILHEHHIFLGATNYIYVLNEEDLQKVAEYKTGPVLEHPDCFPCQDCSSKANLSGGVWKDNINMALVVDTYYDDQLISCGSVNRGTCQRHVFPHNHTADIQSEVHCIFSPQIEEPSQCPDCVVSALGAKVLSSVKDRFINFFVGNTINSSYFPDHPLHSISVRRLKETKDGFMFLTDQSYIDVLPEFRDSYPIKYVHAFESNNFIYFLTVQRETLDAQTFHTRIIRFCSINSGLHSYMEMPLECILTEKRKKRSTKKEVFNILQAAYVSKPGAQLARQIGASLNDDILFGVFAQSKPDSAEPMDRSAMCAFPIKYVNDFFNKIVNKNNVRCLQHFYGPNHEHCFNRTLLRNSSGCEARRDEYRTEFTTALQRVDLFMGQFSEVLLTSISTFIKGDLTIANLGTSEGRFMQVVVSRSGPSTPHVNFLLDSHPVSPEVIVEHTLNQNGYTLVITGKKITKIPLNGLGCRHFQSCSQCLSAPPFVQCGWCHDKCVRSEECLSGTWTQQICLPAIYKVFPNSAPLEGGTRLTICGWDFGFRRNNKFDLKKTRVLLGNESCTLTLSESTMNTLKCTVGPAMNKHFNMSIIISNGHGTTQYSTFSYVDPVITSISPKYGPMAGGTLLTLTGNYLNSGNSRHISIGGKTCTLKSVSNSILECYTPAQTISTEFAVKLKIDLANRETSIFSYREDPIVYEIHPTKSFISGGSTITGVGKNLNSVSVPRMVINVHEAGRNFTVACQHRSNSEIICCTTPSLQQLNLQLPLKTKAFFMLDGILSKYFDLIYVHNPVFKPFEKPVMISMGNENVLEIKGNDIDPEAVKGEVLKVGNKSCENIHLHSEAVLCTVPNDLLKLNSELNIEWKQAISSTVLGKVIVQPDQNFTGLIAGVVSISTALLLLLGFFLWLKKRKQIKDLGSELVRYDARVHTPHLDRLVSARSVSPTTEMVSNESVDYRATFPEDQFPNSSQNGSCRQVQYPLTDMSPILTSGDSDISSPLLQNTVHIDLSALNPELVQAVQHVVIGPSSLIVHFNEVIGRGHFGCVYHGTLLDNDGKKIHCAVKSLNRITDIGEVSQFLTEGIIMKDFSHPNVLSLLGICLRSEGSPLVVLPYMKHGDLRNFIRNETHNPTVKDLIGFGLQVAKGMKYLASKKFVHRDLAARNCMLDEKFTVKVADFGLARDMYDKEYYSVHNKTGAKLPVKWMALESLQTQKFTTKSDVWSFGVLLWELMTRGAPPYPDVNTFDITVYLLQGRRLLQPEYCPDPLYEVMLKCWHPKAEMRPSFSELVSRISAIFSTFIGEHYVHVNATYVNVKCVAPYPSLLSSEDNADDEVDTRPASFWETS

[5] = target: T1, Alpha-glucosidase; test: Inhibition of Saccharomyces cerevisiae alpha-glucosidase using pNPG as substrate incubated for 30 mins by microplate reader analysis; format: protein assay
[6] = Inhibition of HIV-1 wild-type integrase using U5A/U5B-2 labeled double-stranded DNA as substrate by beta radiation counter analysis; set-up: species or system Human immunodeficiency virus 1
[7] = target: DNA polymerase beta (Homo sapiens, UniProt P06746); test: Inhibition of DNA polymerase beta (unknown origin)
[8] = target: T2, Hepatocyte growth factor receptor; test: Inhibition of c-Met (unknown origin) using poly (Glu,Tyr) at 4:1 ratio as substrate incubated for 60 mins by ELISA
[9] = target: cAMP-dependent protein kinase (PKA) (Homo sapiens, UniProt P22694+P17612+P22612); test: Inhibition of PKA (unknown origin) using Kemptide as substrate incubated for [gamma-32P]-ATP incubated for 5 mins by scintillation counter analysis; format: protein assay
[10] = target: Protein kinase C (PKC); test: Inhibition of PKC (unknown origin) using acetylated myelin basic protein (4 to 14 residues) as substrate incubated for [gamma-32P]-ATP incubated for 5 mins by scintillation counter analysis; format: protein assay, Homo sapiens
[11] = Inhibition of porcine pancreas alpha-amylase using CNP-G3 as substrate preincubated for 10 mins followed by substrate addition and measured after 30 mins by microplate reader analysis; set-up: species or system Sus scrofa

SMILES: O=c1oc2ccccc2c(O)c1C(c1c(O)c2ccccc2oc1=O)c1c[nH]c2ccccc12
- IC50 [1]: 48.4 µM

SMILES: O=c1oc2ccccc2c(O)c1C(c1cccnc1)c1c(O)c2ccccc2oc1=O
- IC50 [1]: 35 µM

SMILES: O=c1oc2ccccc2c(O)c1C(c1ccc[nH]1)c1c(O)c2ccccc2oc1=O
- IC50 [1]: 46.1 µM

SMILES: C/C=C/C(c1c(O)c2ccccc2oc1=O)c1c(O)c2ccccc2oc1=O
- IC50 [1]: 42.9 µM

SMILES: COc1ccc(NC(=S)Nc2ccc(C(c3c(O)c4ccccc4oc3=O)c3c(O)c4ccccc4oc3=O)cc2)cc1
- IC50 [3]: 13.5 µM

SMILES: O=c1oc2ccccc2c(O)c1C(c1ccc(NC(=S)Nc2ccc([N+](=O)[O-])cc2)cc1)c1c(O)c2ccccc2oc1=O
- IC50 [7]: 24.7 µM

SMILES: O=C(CCCCC1CCSS1)Oc1ccc(C(c2c(O)c3ccccc3oc2=O)c2c(O)c3ccccc3oc2=O)cc1 (configuration not stated)
- IC50 [6]: 2.3 µM

SMILES: O=C(Oc1ccc(C(c2c(O)c3ccccc3oc2=O)c2c(O)c3ccccc3oc2=O)cc1)c1ccccc1O
- IC50 [6]: 10 µM

SMILES: O=C(Oc1ccc(C(c2c(O)c3ccccc3oc2=O)c2c(O)c3ccccc3oc2=O)cc1)c1ccc(O)cc1O
- IC50 [6]: 4.9 µM

SMILES: O=C(Oc1ccc(C(c2c(O)c3ccccc3oc2=O)c2c(O)c3ccccc3oc2=O)cc1)c1ccc(O)cc1
- IC50 [6]: 3.2 µM

SMILES: CC(=O)Oc1cccc(C(=O)Oc2ccc(C(c3c(O)c4ccccc4oc3=O)c3c(O)c4ccccc4oc3=O)cc2)c1
- IC50 [6]: 7.1 µM

SMILES: O=C(Oc1ccc(C(c2c(O)c3ccccc3oc2=O)c2c(O)c3ccccc3oc2=O)cc1)c1cccc(O)c1
- IC50 [6]: 6.1 µM

SMILES: O=C(Oc1ccc(C(c2c(O)c3ccccc3oc2=O)c2c(O)c3ccccc3oc2=O)cc1)c1cc(O)ccc1O
- IC50 [6]: 25 µM

SMILES: O=C(/C=C/c1ccc(O)c(O)c1)Oc1ccc(C(c2c(O)c3ccccc3oc2=O)c2c(O)c3ccccc3oc2=O)cc1
- IC50 [6]: 2.6 µM

SMILES: COc1ccccc1NC(=S)Nc1ccc(C(c2c(O)c3ccccc3oc2=O)c2c(O)c3ccccc3oc2=O)cc1
- IC50 [3]: 104.62 µM

SMILES: O=C(Oc1ccc(C(c2c(O)c3ccccc3oc2=O)c2c(O)c3ccccc3oc2=O)cc1)c1ccc(O)c(O)c1
- IC50 [6]: 1.5 µM

SMILES: COc1cccc(NC(=S)Nc2ccc(C(c3c(O)c4ccccc4oc3=O)c3c(O)c4ccccc4oc3=O)cc2)c1
- IC50 [3]: 25.31 µM

SMILES: CC(=O)Oc1ccccc1C(=O)Oc1ccc(C(c2c(O)c3ccccc3oc2=O)c2c(O)c3ccccc3oc2=O)cc1
- IC50 [6]: 27 µM

SMILES: CC(=O)Oc1ccc(C(=O)Oc2ccc(C(c3c(O)c4ccccc4oc3=O)c3c(O)c4ccccc4oc3=O)cc2)cc1
- IC50 [6]: 4.6 µM

SMILES: O=C(Oc1ccc(C(c2c(O)c3ccccc3oc2=O)c2c(O)c3ccccc3oc2=O)cc1)c1cc(O)cc(O)c1
- IC50 [6]: 53 µM

SMILES: O=C(Oc1c(C(c2ccc(O)cc2)c2c(O)c3ccccc3oc2=O)c(=O)oc2ccccc12)c1ccc(O)c(O)c1 (configuration not stated)
- IC50 [6]: 37 µM

Continued, values first:

- IC50 [2]: 8 µM
SMILES: O=c1oc2ccccc2c(O)c1C(c1ccc(C(c2c(O)c3ccccc3oc2=O)c2c(O)c3ccccc3oc2=O)cc1)c1c(O)c2ccccc2oc1=O

- IC50 [4]: 100 µM
SMILES: O=c1cc(O)c2ccc(O)c(O)c2o1

- IC50 [5]: 760 µg/mL (≈ 1570 µM)
SMILES: O=c1ccc2ccc(O)c(-c3c(O[C@@H]4OC(CO)[C@@H](O)C(O)C4O)ccc4ccc(=O)oc34)c2o1 (some centres not stated)

- IC50 [6]: 0.49 µM
SMILES: O=C(Oc1ccc(C(c2c(O)c3ccccc3oc2=O)c2c(O)c3ccccc3oc2=O)cc1)c1ccc(C(c2c(O)c3ccccc3oc2=O)c2c(O)c3ccccc3oc2=O)cc1

- IC50 [6]: 2.6 µM
SMILES: CC(=O)Oc1ccc(/C=C/C(=O)Oc2ccc(C(c3c(O)c4ccccc4oc3=O)c3c(O)c4ccccc4oc3=O)cc2)cc1OC(C)=O

- IC50 [6]: 1.8 µM
SMILES: Cc1ccc(C(=O)OCCN(CCOC(=O)c2ccc(C)cc2)c2ccc(C(c3c(O)c4ccccc4oc3=O)c3c(O)c4ccccc4oc3=O)cc2)cc1

- IC50 [6]: 0.96 µM
SMILES: O=C(OCCN(CCOC(=O)c1ccc(Br)cc1)c1ccc(C(c2c(O)c3ccccc3oc2=O)c2c(O)c3ccccc3oc2=O)cc1)c1ccc(Br)cc1

- IC50 [6]: 9.3 µM
SMILES: CC(=O)Oc1cc(OC(C)=O)cc(C(=O)Oc2ccc(C(c3c(O)c4ccccc4oc3=O)c3c(O)c4ccccc4oc3=O)cc2)c1

- IC50 [6]: 19 µM
SMILES: CC(=O)Oc1ccc(C(=O)Oc2ccc(C(c3c(O)c4ccccc4oc3=O)c3c(O)c4ccccc4oc3=O)cc2)c(OC(C)=O)c1

- IC50 [8]: 0.03 µM
SMILES: CCCCCCC(NC(=O)c1cc2ccc(O)c(O)c2oc1=O)C(=O)Nc1cc2ccc(O)c(O)c2oc1=O (configuration not stated)

- IC50 [6]: 0.58 µM
SMILES: Cc1ccc(C(=O)Oc2cc(OC(=O)c3ccc(C)cc3)cc(C(c3c(O)c4ccccc4oc3=O)c3c(O)c4ccccc4oc3=O)c2)cc1

- IC50 [6]: 2.6 µM
SMILES: COc1ccc(/C=C/C(=O)Oc2ccc(C(c3c(O)c4ccccc4oc3=O)c3c(O)c4ccccc4oc3=O)cc2)cc1OC

- IC50 [7]: 122 µM
SMILES: COc1cc2c(O)c(Cc3ccc4ccc(=O)oc4c3)c(=O)oc2cc1O

- IC50 [7]: 94.8 µM
SMILES: O=c1ccc2ccc(Cc3c(O)c4cc(O)c(O)cc4oc3=O)cc2o1

- IC50 [6]: 9.7 µM
SMILES: CC(=O)Oc1ccc(OC(C)=O)c(C(=O)Oc2ccc(C(c3c(O)c4ccccc4oc3=O)c3c(O)c4ccccc4oc3=O)cc2)c1

- IC50 [5]: 231 µg/mL (≈ 326 µM)
SMILES: COc1cc2c(O)c(Oc3cc(O[C@@H]4O[C@H](CO)[C@@H](O)[C@H](O)[C@H]4O[C@@H]4O[C@H](CO)[C@@H](O)[C@H](O)[C@H]4O)c4ccc(=O)oc4c3)c(=O)oc2cc1O

- IC50 [7]: 22.5 µM
SMILES: O=c1ccc2ccc(Cc3cc4ccc(O)cc4oc3=O)cc2o1

- IC50 [6]: 1.9 µM
SMILES: CC(=O)Oc1ccc(C(=O)Oc2ccc(C(c3c(O)c4ccccc4oc3=O)c3c(O)c4ccccc4oc3=O)cc2)cc1OC(C)=O

- IC50 [8]: 0.107 µM
SMILES: CC(C)CC(NC(=O)c1cc2ccc(O)c(O)c2oc1=O)C(=O)Nc1cc2ccc(O)c(O)c2oc1=O (configuration not stated)

- IC50 [4]: 151 µM
SMILES: O=c1oc2c(O)c(O)ccc2c(O)c1Cc1c(O)c2ccc(O)c(O)c2oc1=O

- IC50 [9]: 9.33 µM
- IC50 [10]: 25.01 µM
SMILES: O=c1ccc2ccc(O)c(O)c2o1 [DAPHNETIN]

- IC50 [5]: 86 µg/mL (≈ 244 µM)
- IC50 [11]: 90 µg/mL (≈ 255 µM)
SMILES: COc1cc2cc(Oc3ccc4ccc(=O)oc4c3)c(=O)oc2cc1O [DAPHNORETIN]

- IC50 [1]: 15 µM
SMILES: O=c1oc2ccccc2c(O)c1Cc1c(O)c2ccccc2oc1=O [DICUMAROL]

- IC50 [5]: 49.6 µg/mL (≈ 147 µM)
SMILES: O=c1ccc2ccc(Oc3cc4cc(O)c(O)cc4oc3=O)cc2o1 [EDGEWORTHIN]
